One data set relates to NMDAR. The settings on record: by blocking adenosine receptor; cited from earlier work.
For another data set, the target named is NMDAR glycine site (Homo sapiens, UniProt Q05586). The data set can be described thus: Modulation of the NMDAR glycine site in embodiments. As to conditions: in embodiments of the invention.
A short description of data set [1]: Tinnitus side effect of CMF modulator treatment. The data set is classed as in vivo, human.
A further data set has as its system hair regrowth. The settings on record: topical petroleum jelly composition, up to 10% by weight, shaved skin of mice; cited from earlier work.
The test system of the next data set is NMDAR glutamate site. The settings on record: laboratory studies; cited from earlier work.

For `Cn1c(=O)c2c(ncn2C)n(C)c1=O` [Caffeine], the NMDAR stimulation result in the data set on NMDAR is “stimulates NMDAR at low micromolar concentrations”. Take `NCCS(=O)(=O)O` [Taurine]: on NMDAR glycine site, the “modulation of the NMDAR glycine site” value is on record as “stronger negative modulation effects”.

With `N[C@@H](CCC(=O)O)C(=O)O` [glutamic acid], the tinnitus result in data set [1] (dosed sublingually or topically) is “issues related to tinnitus have been observed”. Further, the “rate of hair regrowth” value in the data set on hair regrowth is reported as “increases the rate of hair regrowth”. Consider `O=C1CC[C@@H](C(=O)O)N1` [pyroglutamic acid], for which the tinnitus entry in data set [1] (dosed orally) is on record as “issues related to tinnitus have been observed”. Moreover, the “modulation of the NMDAR glutamate site” value in the data set with NMDAR glutamate site is “negative modulator”.

These data come from patent US20230115416A1, “COMPOSITIONS AND METHODS FOR PROMOTING CELLULAR METABOLIC FITNESS” (priority 2021, published 2023).
